Reference: patent US20210047278A1, “E3 UBIQUITIN LIGASE AGONISTS, PHARMACEUTICAL COMPOSITIONS INCLUDING THE E3 UBIQUITIN LIGASE AGONISTS, RELATED METHODS OF USE” (FRED HUTCHINSON CANCER RESEARCH CENTER, priority 2018, published 2021)
Read-outs that look alike come from different tables or passages of the source.

Assays:
Type in all cases: binding
[1] = biological target: T1, FBW7^ARG+pCycE (Homo sapiens, UniProt Q969H0, R505L); assay: FBW7^ARG-cyclin E agonist ALPHAscreen (primary PRUN, confirmation CRUN1, dose-response DRUN); conditions: for EC50 / Emax: DRUN dose-response; for Emax: relative to WT-FBW7+pCycE, read-out: FBW7 ACT Averaged Max % Response
T1 construct: GST (TEV site and flexible linker) (N, cleaved yes); made in house; host or cells: SF9 insect cells (baculovirus)
T1 sequence (Q969H0 64-707 R505L): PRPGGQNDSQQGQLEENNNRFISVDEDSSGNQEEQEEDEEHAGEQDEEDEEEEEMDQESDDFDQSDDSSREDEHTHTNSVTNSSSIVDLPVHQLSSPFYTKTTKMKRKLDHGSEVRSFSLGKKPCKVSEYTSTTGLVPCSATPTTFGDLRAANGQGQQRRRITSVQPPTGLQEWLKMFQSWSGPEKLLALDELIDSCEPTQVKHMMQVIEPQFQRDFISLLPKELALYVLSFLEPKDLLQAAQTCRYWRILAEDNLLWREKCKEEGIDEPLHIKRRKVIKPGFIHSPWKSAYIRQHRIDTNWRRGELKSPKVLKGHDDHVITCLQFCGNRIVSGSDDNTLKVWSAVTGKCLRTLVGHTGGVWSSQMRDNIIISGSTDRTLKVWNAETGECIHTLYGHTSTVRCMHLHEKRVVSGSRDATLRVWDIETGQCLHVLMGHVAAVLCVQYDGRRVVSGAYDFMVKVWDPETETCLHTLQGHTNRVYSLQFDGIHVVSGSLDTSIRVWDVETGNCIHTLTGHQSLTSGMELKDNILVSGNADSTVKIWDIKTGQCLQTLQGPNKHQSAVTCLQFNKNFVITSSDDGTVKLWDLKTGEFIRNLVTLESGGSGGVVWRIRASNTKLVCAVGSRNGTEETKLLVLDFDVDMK
T1 sequence (P63208 2-163 partner): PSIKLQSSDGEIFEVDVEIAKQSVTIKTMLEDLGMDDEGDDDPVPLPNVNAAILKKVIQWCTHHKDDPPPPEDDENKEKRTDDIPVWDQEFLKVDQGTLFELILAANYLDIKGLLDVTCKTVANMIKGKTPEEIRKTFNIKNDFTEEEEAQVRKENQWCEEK
Summary of the method: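 ALPHAscreen agonist assay: His-tagged FBW7 R505L on Ni-chelate acceptor beads (25 nM FBW7, 25 nM biotinylated phospho-cyclin E peptide, 10 µg/ml beads), streptavidin donor beads, ALPHA signal read. Primary and confirmation runs at 26.1 μM; dose-response as 10-point 3-fold series to ~87 μM, in triplicate; activation relative to WT-FBW7+pCycE.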

[2] = biological target: T2, FBW7^ARG (RLFBW7) alone (Homo sapiens, UniProt Q969H0, R505L); assay: Counterscreen 1 ALPHAscreen with FBW7^ARG alone (CSRUN1/DCSRUN1); conditions: dose-response counterscreen; for Emax: read-out: RLFBW7 ACT DCSRUN1 Averaged Max % Response
T2 construct: GST (TEV site and flexible linker) (N, cleaved yes); made in house; host or cells: SF9 insect cells (baculovirus)
T2 sequence (Q969H0 64-707 R505L): as the sequence (Q969H0 64-707 R505L) above
T2 sequence (P63208 2-163 partner): as the sequence (P63208 2-163 partner) above
Summary of the method: (§1)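 ALPHAscreen counterscreens, read on ENVISION, omitting either FBW7^ARG or the phosphorylated cyclin E peptide to flag general ALPHAscreen agonists. Compounds tested in triplicate as 10-point 3-fold dilutions up to approximately 87 μM. Activation expressed relative to WT-FBW7+pCycE, with 10% set as positive.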

[3] = tested on: pCycE alone; assay: Counterscreen 2 ALPHAscreen with cyclin E phosphopeptide alone (CSRUN2/DCSRUN2); conditions: for CyCEP ACT DCSRUN2 Averaged Max % Response: activation relative to WT-FBW7+pCycE, averaged maximum; for EC50: dose-response, triplicate, 10 point 3-fold dilutional series, read-out: CyCEP ACT DCSRUN2 Final EC50
Summary of the method: as §1

[4] = raw curve fit, read-out: FBW7 ACT EC50 Curve Fit Raw, Molar
[5] = triplicate, 10 point 3-fold dilution, max approx. 87 μM, read-out: FBW7 ACT Final EC50, Molar
[6] = confirmation assay, triplicate, single concentration 26.1 μM, read-out: FBW7 ACT CRUN1 Avg % Response and Stdev
[7] = primary screen, 1536-well, 26.1 μM, FBW7^ARG + pCycE degron peptide, high control wt-FBW7+pCycE, read-out: FBW7 ACT PRUN % Response
[8] = raw curve fit, read-out: RLFBW7 ACT DCSRUN1 EC50 Curve Fit Raw
[9] = read-out: RLFBW7 ACT DCSRUN1 Final EC50

| SMILES | EC50 [1, 4] | Emax [1] | EC50 [1, 5] | activation at 26.1 µM [1, 6] | activation at 26.1 µM [1, 7] | EC50 [2, 8] | Emax [2] | EC50 [2, 9] | RLFBW7 ACT DCSRUN1 Hill Slope [2] | CyCEP ACT DCSRUN2 Averaged Max % Response [3] | EC50 [3] |
| --- | --- | --- | --- | --- | --- | --- | --- | --- | --- | --- | --- |
| O=C(c1ccco1)N1CCN(c2ncc(-c3ccccc3CO)n3ccnc23)CC1 [SR-01000381408-1] | 20.3 µM | 18.1% | > 65.3 µM | 1.92 ± 0.3% | 6.66% | 0.229 µM | 0.83% | > 65.3 µM |  | 0.18% | > 65.3 µM |
| CCOC(=O)c1sc2ncn(CC(=O)NCCC3=CCCCC3)c(=O)c2c1C [SR-01000119175-1] |  | 10.3% |  | 2.53 ± 0.13% | 2.18% |  | 0.7% |  |  | 0.13% | > 65.3 µM |
| CCN(CC)c1ccc2c(c1)OC(N)=C(C#N)C2c1ccccc1 (stereo not shown) [SR-01000320053-1] | 31.4 µM | 13.7% | > 65.3 µM | 2.14 ± 0.69% | 3.43% | 75.4 µM | 6.24% | > 65.3 µM |  | 0.22% | > 65.3 µM |
| NC(c1nc2cc(-c3ccncc3)cnc2[nH]1)c1ccc(F)cc1F.O=C(O)C(F)(F)F (stereo not shown) [SR-00000003416-1] | 8.8 µM | 16.4% | > 65.3 µM | 3.91 ± 0.47% | 3.51% | 4 µM | 0.2% | > 65.3 µM |  | 0.29% | > 65.3 µM |
| C/C(=N\Nc1cccc(C(F)(F)F)c1)C1CC1 [SR-01000041073-1] | 15.5 µM | 26.6% | > 75.4 µM | 10.7 ± 0.12% | 3.41% | 42.4 µM | 101% | 39.8 µM | 3.57 | 0.22% | > 75.4 µM |
| COc1cccc(/C=N/c2cnn(C)c2C(N)=O)c1O [SR-01000314216-1] | 26.4 µM | 22.7% | > 65.3 µM | 4.06 ± 0.07% | 3.64% |  | 0.25% | > 65.3 µM |  | 0.18% | > 65.3 µM |
| Cc1ncn(-c2ccc(Nc3cc(-c4nocc4-c4ccccn4)ccn3)cc2)n1.O=C(O)C(F)(F)F [SR-00000006872-1] | 2.6 µM | 12.1% | > 65.3 µM | 4.15 ± 0.5% | 2.76% | 83.6 µM | 2.08% | > 65.3 µM |  | 0.34% | > 65.3 µM |
| CC(NC(=O)c1cnc2ccccn12)c1ccc(F)cc1 (stereo not shown) [SR-01000378746-1] | 0.0903 µM | 6.66% | > 65.3 µM | 3.47 ± 0.47% | 2.82% | 0.011 µM | 1.12% | > 65.3 µM |  | 0.23% | > 65.3 µM |
| Cc1ccc2nc(SCC(=O)Nc3ncc(C)s3)c(C#N)cc2c1 [SR-01000340506-1] | 14.9 µM | 10.7% | > 65.3 µM | 3.87 ± 0.19% | 3.77% | 16.2 µM | 35.6% | > 65.3 µM |  | 0.24% | > 65.3 µM |
| CN(C)CCN(C)c1nc([C@H](N)Cc2cccc(F)c2)cc2ccc(-c3cn[nH]c3)cc12.O=C(O)C(F)(F)F [SR-00000006284-1] | 7.2 µM | 15.4% | > 16.3 µM | 7.7 ± 0.45% | 2.73% | 2.2 µM | 0.27% | > 16.3 µM |  | 0.41% | > 16.3 µM |
| COc1cc(-c2ccnc(N)n2)ccc1NC(=O)[C@H]1COc2ccccc2O1.O=C(O)C(F)(F)F [SR-00000003239-1] | 18.6 µM | 19.3% | > 65.3 µM | 2.52 ± 0.29% | 2.52% | 12.8 µM | 0.69% | > 65.3 µM |  | 0.15% | > 65.3 µM |
| CCN(Cc1ccccc1)C(=O)c1cc2c(=O)n3cccc(C)c3nc2n1C [SR-01000140943-1] | 21.5 µM | 8.52% | > 65.3 µM | 2.95 ± 0.31% | 3.93% | 4.1 µM | 1.56% | > 65.3 µM |  | 0.79% | > 65.3 µM |
| O=c1c2cnn(-c3ccccc3)c2nnn1Cc1cccnc1 [SR-01000355082-1] | 0.009 µM | 6.4% | > 65.3 µM | 2.54 ± 0.42% | 1.95% | 11.9 µM | 2.7% | > 65.3 µM |  | 0.12% | > 65.3 µM |

More lines, main results first:

| EC50 [1, 4] | Emax [1] | EC50 [1, 5] | activation at 26.1 µM [1, 6] | activation at 26.1 µM [1, 7] | EC50 [2, 8] | Emax [2] | EC50 [2, 9] | RLFBW7 ACT DCSRUN1 Hill Slope [2] | SMILES | CyCEP ACT DCSRUN2 Averaged Max % Response [3] | EC50 [3] |
| --- | --- | --- | --- | --- | --- | --- | --- | --- | --- | --- | --- |
| 18.2 µM | 10% | > 50.8 µM | 6.77 ± 1.17% | 1.92% | 20.2 µM | 3.33% | > 50.8 µM |  | CC1=C(C(=O)OC2CCCCC2)C(c2ccc(F)cc2)C2=C(CC(c3ccccc3)CC2=O)N1 (stereo not shown) [SR-01000420805-1] | 0.22% | > 50.8 µM |
| 18 µM | 23.1% | > 65.3 µM | 5.69 ± 0.17% | 7.62% | 0.0059 µM | -0.274% | > 65.3 µM |  | COc1ccccc1-c1ccc(N2CCN(C(=O)COc3ccccc3)CC2)nn1 [SR-01000920770-1] | 0.32% | > 65.3 µM |
| 15.1 µM | 9.73% | > 87.4 µM | 11.2 ± 1.65% | 2.51% | 0.0102 µM | 1.48% | > 87.4 µM |  | COc1ccc(N2C(=O)CC(SCCN)C2=O)cc1 (stereo not shown) [SR-01000428800-1] | 2.47% | > 87.4 µM |
| 16.5 µM | 18.3% | > 65.3 µM | 4.96 ± 0.03% | 3.13% | 22.5 µM | 0.09% | > 65.3 µM |  | Cc1cccc(NC(=O)N2CCC(c3nnc(C4CC4)s3)CC2)c1 [SR-01000922889-1] | 0.23% | > 65.3 µM |
| 0.0034 µM | 8.34% | > 34.2 µM | 4.66 ± 1.07% | 1.93% |  | 1.54% | > 34.2 µM |  | CC1=C(C(=O)OCc2ccccc2)C(c2cn(-c3ccccc3)nc2-c2ccc(F)cc2)C(C(=O)OCc2ccccc2)=C(C)N1 [SR-01000425637-1] | 2.59% | > 34.2 µM |
| 0.0036 µM | 7.92% | > 41.4 µM | 5.16 ± 0.69% | 2.28% | 0.0044 µM | 0.91% | > 41.4 µM |  | CCSCCOC(=O)C1=C(C)NC2=C(C(=O)CC(c3ccccc3)C2)C1c1ccc(OC)cc1OC (stereo not shown) [SR-01000425645-1] | 2.61% | > 41.4 µM |
| 0.0017 µM | 7.11% | > 59.3 µM | 2.95 ± 3.6% | 1.88% |  | -0.422% | > 59.3 µM |  | COc1ccc(OC)c(/C=C2/N=C(c3cccc([N+](=O)[O-])c3)OC2=O)c1 [SR-01000414795-1] | 0.02% | > 59.3 µM |
| 0.698 µM | 7.32% | > 85 µM | 2.48 ± 0.45% | 1.93% |  | -0.247% | > 85 µM |  | Cn1nc(CC(=O)Nc2ccc(F)c(Cl)c2)c2ccccc2c1=O [SR-01000589827-1] | 0.04% | > 85 µM |
| 23.8 µM | 8.75% | > 62.2 µM | 5.27 ± 1.17% | 2.58% | 0.0056 µM | 1.53% | > 62.2 µM |  | COc1ccc(COC(=O)C2=C(C)NC3=C(C(=O)CC(C)(C)C3)C2c2ccccc2)cc1 (stereo not shown) [SR-01000427708-1] | 1.77% | > 62.2 µM |
| 0.0401 µM | 6.91% | > 56.7 µM | 4.37 ± 0.72% | 1.87% | 0.619 µM | 0.11% | > 56.7 µM |  | Cc1c(NC(=O)/C(=C\c2ccccc2)NC(=O)c2ccccc2)c(=O)n(-c2ccccc2)n1C [SR-01000422225-1] | 0.18% | > 56.7 µM |
